We go through one compound from patent publication US8071531B2, “Flavor and fragrance composition” (Takasgo International Corporation, priority 2006, dated 2011).

Molecules are shown by their SMILES.

A short description of the assay: Oral sensory evaluation of an aqueous solution by seven expert panelists. Type of assay: in vivo. On the procedure: Oral evaluation of an aqueous solution of (1R,2R,4R)-1-(2-hydroxy-4-methylcyclohexyl)ethanone obtained in Synthesis Example 1 was carried out by seven expert panelists.

Take `CC(=O)[C@@H]1CC[C@@H](C)C[C@H]1O` [(1R,2R,4R)-1-(2-hydroxy-4-methylcyclohexyl)ethanone]: the “appearance of refreshing feeling and taste” value (aqueous solution, oral evaluation) was “relatively rapid with clear refreshing feeling without unpleasant taste”. For the same compound, the “Cool and refreshing feeling of the aqueous solution, equivalent concentration of menthol” value (at a concentration of 50 ppm in aqueous solution) was 10 ppm.
